From patent US20260285850A1, “SUBSTITUTED OXAZOLIDINONES AND IMIDAZOLINONES AS HERBICIDES” (FMC CORPORATION, priority 2023, published 2026)

Legend:
Type in all cases: in vivo
soybean (Glycine max) [1] = assay: Test A preemergence soil spray, visual injury rating 0-100; conditions: 10 days; for Soybean plant response rating: 0 to 100 scale
Method in brief: (§1)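 Compound in a non-phytotoxic, surfactant-containing solvent is applied either as a directed soil spray before seedlings emerge or onto emerged plants 2-10 cm tall; pots hold a loam-sand blend. Plants grow 10 days under greenhouse conditions and are rated by eye against untreated controls (0 no effect, 100 complete control).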

[2] = test system: green foxtail (Setaria viridis); assay: as above; conditions: 10 days; for Foxtail, Green plant response rating: 0 to 100 scale
Method in brief: as §1

[3] = test system: ryegrass, Italian (italian ryegrass, Lolium multiflorum); assay: as above; conditions: 10 days; for Ryegrass, Italian plant response rating: 0 to 100 scale
Method in brief: as §1

[4] = test system: blackgrass (Alopecurus myosuroides); assay: as above; conditions: 10 days; for Blackgrass plant response rating: 0 to 100 scale
Method in brief: as §1

[5] = test system: barnyardgrass (Echinochloa crus-galli); assay: as above; conditions: 10 days; for Barnyardgrass plant response rating: 0 to 100 scale
Method in brief: as §1

corn (Zea mays) [6] = assay: as above; conditions: 10 days; for Corn plant response rating: 0 to 100 scale
Method in brief: as §1

[7] = test system: oat, wild (wild oat, Avena fatua); assay: as above; conditions: 10 days; for Oat, Wild plant response rating: 0 to 100 scale
Method in brief: as §1

[8] = test system: palmer (palmer amaranth, palmer pigweed, Amaranthus palmeri); assay: as above; conditions: 10 days
Method in brief: as §1

[9] = test system: wheat (Triticum aestivum); assay: as above; conditions: 10 days; for Wheat plant response rating: 0 to 100 scale
Method in brief: as §1

[10] = test system: ragweed (common ragweed, Ambrosia artemisiifolia); assay: as above; conditions: 10 days; for Ragweed plant response rating: 0 to 100 scale
Method in brief: as §1

kochia (Bassia scoparia) [11] = assay: as above; conditions: 10 days; for Kochia plant response rating: 0 to 100 scale
Method in brief: as §1

soybean (Glycine max) [12] = assay: Test A postemergence application, visual injury rating 0-100; conditions: for Soybean plant response rating (0 to 100 scale): Postemergence
Method in brief: as §1

[13] = test system: green foxtail (Setaria viridis); assay: as above; conditions: for Foxtail, Green plant response rating (0 to 100 scale): Postemergence
Method in brief: as §1

[14] = test system: ryegrass, Italian (italian ryegrass, Lolium multiflorum); assay: as above; conditions: for Ryegrass, Italian plant response rating (0 to 100 scale): Postemergence
Method in brief: as §1

[15] = test system: blackgrass (Alopecurus myosuroides); assay: as above; conditions: for Blackgrass plant response rating (0 to 100 scale): Postemergence
Method in brief: as §1

[16] = test system: barnyardgrass (Echinochloa crus-galli); assay: as above; conditions: for Barnyardgrass plant response rating (0 to 100 scale): Postemergence
Method in brief: as §1

corn (Zea mays) [17] = assay: as above; conditions: for Corn plant response rating (0 to 100 scale): Postemergence
Method in brief: as §1

[18] = test system: oat, wild (wild oat, Avena fatua); assay: as above; conditions: for Oat, Wild plant response rating (0 to 100 scale): Postemergence
Method in brief: as §1

[19] = test system: palmer (palmer amaranth, palmer pigweed, Amaranthus palmeri); assay: as above
Method in brief: as §1

[20] = test system: wheat (Triticum aestivum); assay: as above; conditions: for Wheat plant response rating (0 to 100 scale): Postemergence
Method in brief: as §1

[21] = test system: galium (catchweed bedstraw, Galium aparine); assay: as above; conditions: for Galium plant response rating (0 to 100 scale): Postemergence
Method in brief: as §1

[22] = test system: ragweed (common ragweed, Ambrosia artemisiifolia); assay: as above; conditions: for Ragweed plant response rating (0 to 100 scale): Postemergence
Method in brief: as §1

[23] = test system: horseweed (Erigeron canadensis); assay: as above; conditions: for Horseweed plant response rating (0 to 100 scale): Postemergence
Method in brief: as §1

kochia (Bassia scoparia) [24] = assay: as above; conditions: for Kochia plant response rating (0 to 100 scale): Postemergence
Method in brief: as §1

[25] = test system: ducksalad (Heteranthera limosa); assay: Test B flooded paddy test, visual plant response rating 0-100; conditions: 250 g ai/ha, Flood, applied to paddy water, evaluated after 13 days
Method in brief: (§2)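 Treatment occurs at the 2-leaf stage by adding compound to floodwater standing 3 cm above the soil, a level kept for the whole test. Plants stay in the greenhouse 13 days before visual comparison with controls.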

rice (Oryza sativa) = assay: as above; conditions: 250 g ai/ha, Flood, applied to paddy water, evaluated after 13 days
Method in brief: as §2

[26] = test system: barnyardgrass (Echinochloa crusgalli); assay: as above; conditions: 250 g ai/ha, Flood, applied to paddy water, evaluated after 13 days
Method in brief: as §2

[27] = test system: sedge, umbrella (small-flower umbrella sedge, Cyperus difformis); assay: as above; conditions: 250 g ai/ha, Flood, applied to paddy water, evaluated after 13 days
Method in brief: as §2

[28] = 8 g ai/ha, 10 days, 0 is no effect, 100 is complete control
[29] = 31 g ai/ha, greenhouse 10 days, 0 no effect, 100 complete control
[30] = 62 g ai/ha, 0 = no effect, 100 = complete control
[31] = 62 g ai/ha, postemergence, 10 days, 0 = no effect, 100 = complete control
[32] = 16 g ai/ha, greenhouse 10 days, 0 no effect, 100 complete control

CC1(C(=O)NC2C=CC(C(=O)NS(=O)(=O)c3ccccc3)C2)CN(c2cc(F)cc(F)c2)C(=O)O1 (centres unmarked) [Compound 88]
10: Ryegrass, Italian plant response rating ([3]; 8 g ai/ha) | Barnyardgrass plant response rating ([5]; 8 g ai/ha) | Wheat plant response rating ([9]; 31 g ai/ha) | Barnyardgrass plant response rating (0 to 100 scale) [16, 28]
20: Foxtail, Green plant response rating ([2]; 8 g ai/ha) | Oat, Wild plant response rating (0 to 100 scale) [18, 28] | Wheat plant response rating (0 to 100 scale) [20, 28]
15: Plant response rating, Barnyardgrass (0 to 100 scale, 0 is no effect and 100 is complete control) [26]
25: Plant response rating, Rice (0 to 100 scale, 0 is no effect and 100 is complete control) (rice (Oryza sativa))
30: Foxtail, Green plant response rating ([2]; 31 g ai/ha) | Blackgrass plant response rating ([4]; 31 g ai/ha) | Galium plant response rating (0 to 100 scale) [21, 28] | Kochia plant response rating (0 to 100 scale) (kochia (Bassia scoparia) [24]; [28])
0: Soybean plant response rating (soybean (Glycine max) [1]; 8 g ai/ha) | Soybean plant response rating (soybean (Glycine max) [1]; 31 g ai/ha) | Blackgrass plant response rating ([4]; 8 g ai/ha) | Corn plant response rating (corn (Zea mays) [6]; 8 g ai/ha) | Corn plant response rating (corn (Zea mays) [6]; 31 g ai/ha) | Oat, Wild plant response rating ([7]; 8 g ai/ha) | Oat, Wild plant response rating ([7]; 31 g ai/ha) | Wheat plant response rating ([9]; 8 g ai/ha) | Ragweed plant response rating ([10]; 8 g ai/ha) | Kochia plant response rating (kochia (Bassia scoparia) [11]; 8 g ai/ha) | Soybean plant response rating (0 to 100 scale) (soybean (Glycine max) [12]; [28]) | Foxtail, Green plant response rating (0 to 100 scale) [13, 28] | Ryegrass, Italian plant response rating (0 to 100 scale) [14, 28] | Blackgrass plant response rating (0 to 100 scale) [15, 28] | Horseweed plant response rating (0 to 100 scale) [23, 28]
80: Amaranth, Palmer (Pigweed, Palmer) plant response rating ([8]; 31 g ai/ha, 0 to 100 scale) | Kochia plant response rating (0 to 100 scale) (kochia (Bassia scoparia) [24]; [29]) | Plant response rating, Sedge, Umbrella (0 to 100 scale, 0 is no effect and 100 is complete control) [27]
40: Barnyardgrass plant response rating ([5]; 31 g ai/ha) | Ragweed plant response rating ([10]; 31 g ai/ha) | Corn plant response rating (0 to 100 scale) (corn (Zea mays) [17]; [28]) | Pigweed, Palmer plant response rating (0 to 100 scale) ([19]; 8 g ai/ha, Postemergence, 10 days, 0 is no effect, 100 is complete control) | Wheat plant response rating (0 to 100 scale) [20, 29]
90: Corn plant response rating (0 to 100 scale) (corn (Zea mays) [17]; [29]) | Oat, Wild plant response rating (0 to 100 scale) [18, 29] | Amaranth, Palmer / Pigweed, Palmer plant response rating (0 to 100 scale) ([19]; Postemergence, 31 g ai/ha, greenhouse 10 days, 0 no effect, 100 complete control)
70: Galium plant response rating (0 to 100 scale) [21, 29] | Plant response rating, Ducksalad (0 to 100 scale, 0 is no effect and 100 is complete control) [25]
50: Ryegrass, Italian plant response rating ([3]; 31 g ai/ha) | Pigweed, Palmer plant response rating ([8]; 8 g ai/ha, 0 to 100 scale) | Soybean plant response rating (0 to 100 scale) (soybean (Glycine max) [12]; [29]) | Foxtail, Green plant response rating (0 to 100 scale) [13, 29] | Ryegrass, Italian plant response rating (0 to 100 scale) [14, 29] | Blackgrass plant response rating (0 to 100 scale) [15, 29] | Ragweed plant response rating (0 to 100 scale) [22, 28] | Horseweed plant response rating (0 to 100 scale) [23, 29]
60: Kochia plant response rating (kochia (Bassia scoparia) [11]; 31 g ai/ha) | Ragweed plant response rating (0 to 100 scale) [22, 29]
100: Barnyardgrass plant response rating (0 to 100 scale) [16, 29]

COC(=O)C1C=CC(NC(=O)C2(C)CN(c3cc(F)cc(F)c3)C(=O)O2)C1 (centres unmarked) [Compound 89]
30: Blackgrass plant response rating ([4]; 16 g ai/ha) | Corn plant response rating (corn (Zea mays) [6]; 16 g ai/ha) | Ragweed plant response rating (0-100) [10, 30]
90: Ryegrass, Italian plant response rating (0-100) [3, 30] | Oat, Wild plant response rating (0-100) [7, 30] | Wheat plant response rating ([9]; 16 g ai/ha) | Wheat plant response rating (0-100) [9, 30] | Kochia plant response rating (kochia (Bassia scoparia) [11]; 16 g ai/ha) | Foxtail, Green plant response rating (0-100) [13, 31] | Ryegrass, Italian plant response rating (0-100) [14, 31] | Ryegrass, Italian plant response rating (0 to 100 scale) [14, 32] | Blackgrass plant response rating (0-100) [15, 31] | Blackgrass plant response rating (0 to 100 scale) [15, 32] | Barnyardgrass plant response rating (0 to 100 scale) [16, 32] | Corn plant response rating (0 to 100 scale) (corn (Zea mays) [17]; [32]) | Oat, Wild plant response rating (0-100) [18, 31] | Oat, Wild plant response rating (0 to 100 scale) [18, 32] | Pigweed, Palmer plant response rating (0-100) [19, 31] | Wheat plant response rating (0-100) [20, 31] | Wheat plant response rating (0 to 100 scale) [20, 32] | Kochia plant response rating (0-100) (kochia (Bassia scoparia) [24]; [31])
0: Ragweed plant response rating ([10]; 16 g ai/ha)
50: Soybean plant response rating (0-100) (soybean (Glycine max) [12]; [31]) | Soybean plant response rating (0 to 100 scale) (soybean (Glycine max) [12]; [32]) | Ragweed plant response rating (0 to 100 scale) [22, 32]
95: Plant response rating, Barnyardgrass (0 to 100 scale, 0 is no effect and 100 is complete control) [26] | Plant response rating, Sedge, Umbrella (0 to 100 scale, 0 is no effect and 100 is complete control) [27]
70: Blackgrass plant response rating (0-100) [4, 30] | Barnyardgrass plant response rating ([5]; 16 g ai/ha) | Pigweed, Palmer plant response rating (0 to 100 scale) ([19]; Postemergence, 16 g ai/ha, greenhouse 10 days, 0 no effect, 100 complete control) | Ragweed plant response rating (0-100) [22, 31] | Plant response rating, Ducksalad (0 to 100 scale, 0 is no effect and 100 is complete control) [25]
20: Horseweed plant response rating (0 to 100 scale) [23, 32]
40: Soybean plant response rating (soybean (Glycine max) [1]; 16 g ai/ha)
100: Foxtail, Green plant response rating (0-100) [2, 30] | Barnyardgrass plant response rating (0-100) [5, 30] | Corn plant response rating (0-100) (corn (Zea mays) [6]; [30]) | Pigweed, Palmer plant response rating (0-100) [8, 30] | Kochia plant response rating (0-100) (kochia (Bassia scoparia) [11]; [30]) | Barnyardgrass plant response rating (0-100) [16, 31] | Corn plant response rating (0-100) (corn (Zea mays) [17]; [31]) | Galium plant response rating (0-100) [21, 31] | Galium plant response rating (0 to 100 scale) [21, 32]
80: Soybean plant response rating (0-100) (soybean (Glycine max) [1]; [30]) | Ryegrass, Italian plant response rating ([3]; 16 g ai/ha) | Oat, Wild plant response rating ([7]; 16 g ai/ha) | Pigweed, Palmer plant response rating ([8]; 16 g ai/ha, 0 to 100 scale) | Horseweed plant response rating (0-100) [23, 31] | Kochia plant response rating (0 to 100 scale) (kochia (Bassia scoparia) [24]; [32])
60: Foxtail, Green plant response rating (0 to 100 scale) [13, 32]
10: Foxtail, Green plant response rating ([2]; 16 g ai/ha)
25: Plant response rating, Rice (0 to 100 scale, 0 is no effect and 100 is complete control) (rice (Oryza sativa))
